Data on four molecules can be found in article PMC7665192, “A natriuretic peptide from Arabidopsis thaliana (AtPNP-A) can modulate catalase 2 activity” (Scientific Reports, 2020).

Positions of bridges follow the written chain, without caps; N, C: chain ends. No end group written: not given here.

In one data set the test system is CAT2 transcript. The conditions noted are these: exogenous application; cited from earlier work. The text has this: (§1) It is also conceivable that modulation of CAT2 activity by AtPNP-A may not only have implications for plant biotic stress tolerance but may also result in changes in responses to abiotic stress. Activity of CAT2 is required for decomposition of photorespiration-derived H2O2 preventing redox perturbation under ambient growth conditions[59] while CAT2 deficiency causes a defective photorespiration phenotype including suppressed growth[58],[59] and accumulation of H2O2 in leaves. During senescence suppression of CAT2 function, mediated by G-BOX BINDING FACTOR1 (GBF1)[76], decreases CAT2 activ ...

In a further data set the test system is plant pathogen. Conditions: exogenous H2O2; cited from earlier work.
For data set [1], the system named is AtPNP-A-deficient seedlings. The conditions noted are these: cited from earlier work.
Text: as §1

The subject of a further data set is guard cell. Conditions: cited from earlier work. The text has this:
A PNP_CAT interaction in plant responses to infecting pathogens is not surprising. CATs commonly function to down-regulate ROS during ABA-induced stomatal closure, and ABA-induced stomatal closure can be inhibited by removal of H2O2 via CAT2[73],[74]. […] Therefore, it is tempting to speculate that AtPNP-A modulates the effect of ABA on stomatal aperture through the interaction w ...

The test system of the next data set is cGMP. The conditions noted are these: cited from earlier work. The text has this:
Similarly, identification of novel receptors targeted by an increasing number of peptidic plant hormones discovered in the last few decades[8],[9] is anticipated. One of those, the plant natriuretic peptides (PNPs), are a group of systemically mobile signals[10] that have a role in the maintenance of salt and water balance[11],[12]. An A. thaliana PNP, termed AtPNP-A (At2g18660; Q9ZV52), has been implicated in several physiological processes ranging from the regulation of stomatal aperture, osmoticum-dependent volume changes[13],[14] and modulation of developmental stage- and tissue-specif ... || A PNP_CAT interaction in plant responses to infecting pathogens is not surprising. CATs commonly function to down-regulate ROS during ABA-induced stomatal closure, and ABA-induced stomatal closure can be inhibited by removal of H2O2 via CAT2[73],[74]. […] Therefore, it is tempting to speculate that AtPNP-A modulates the effect of ABA on stomatal aperture through the interaction w ...

For data set [2], the target named is T1, bovine liver CAT (C-40; Sigma) (bovine, UniProt P00432 1-527).
T1 construct: catalase from bovine liver; also called bovine CAT; bovine liver catalase; source: bought: Sigma (C-40), bovine liver
T1 sequence (looked up): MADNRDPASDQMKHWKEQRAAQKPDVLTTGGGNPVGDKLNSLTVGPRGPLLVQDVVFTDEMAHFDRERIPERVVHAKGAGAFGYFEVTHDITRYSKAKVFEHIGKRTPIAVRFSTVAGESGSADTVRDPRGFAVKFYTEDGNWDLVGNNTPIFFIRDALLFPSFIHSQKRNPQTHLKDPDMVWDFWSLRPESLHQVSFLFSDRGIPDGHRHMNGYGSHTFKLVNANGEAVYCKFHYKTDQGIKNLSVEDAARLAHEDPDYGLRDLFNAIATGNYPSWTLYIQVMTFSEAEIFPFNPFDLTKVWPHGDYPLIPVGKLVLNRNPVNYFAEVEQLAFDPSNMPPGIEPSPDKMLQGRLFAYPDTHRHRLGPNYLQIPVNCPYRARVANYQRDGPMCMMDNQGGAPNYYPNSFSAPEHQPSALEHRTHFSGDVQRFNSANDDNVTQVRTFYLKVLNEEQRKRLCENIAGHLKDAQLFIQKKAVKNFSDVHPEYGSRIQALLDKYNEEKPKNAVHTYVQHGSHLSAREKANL
Description: SPR; Biacore T100, 20 °C, flow 100 μL/min; bovine liver CAT amine-coupled to Series S CM5 chip, pAtPNP-A at 3.78 μM and consecutive twofold dilutions (11 injections); regeneration with glycine pH 2.0; kinetic analysis. The conditions noted are these: both partners purified. A general note: Surface plasmon resonance follows binding to a sensor surface in real time, without labels.

Data set [3] has as its target T2, recombinant catalase 2 (rCAT2), N-terminally 6xHis-tagged (A. thaliana, UniProt P25819 1-492).
T2 construct: catalase 2 (CAT2), A. thaliana; held on the NTA chip by its His tag; also called CAT2 recombinant protein; His-tagged rCAT2; source: E. coli BL21 (DE3) One Shot, purified (Ni-NTA beads, HisTrap HP column); not shown: 6xHis, N-terminal, kept
T2 sequence (looked up): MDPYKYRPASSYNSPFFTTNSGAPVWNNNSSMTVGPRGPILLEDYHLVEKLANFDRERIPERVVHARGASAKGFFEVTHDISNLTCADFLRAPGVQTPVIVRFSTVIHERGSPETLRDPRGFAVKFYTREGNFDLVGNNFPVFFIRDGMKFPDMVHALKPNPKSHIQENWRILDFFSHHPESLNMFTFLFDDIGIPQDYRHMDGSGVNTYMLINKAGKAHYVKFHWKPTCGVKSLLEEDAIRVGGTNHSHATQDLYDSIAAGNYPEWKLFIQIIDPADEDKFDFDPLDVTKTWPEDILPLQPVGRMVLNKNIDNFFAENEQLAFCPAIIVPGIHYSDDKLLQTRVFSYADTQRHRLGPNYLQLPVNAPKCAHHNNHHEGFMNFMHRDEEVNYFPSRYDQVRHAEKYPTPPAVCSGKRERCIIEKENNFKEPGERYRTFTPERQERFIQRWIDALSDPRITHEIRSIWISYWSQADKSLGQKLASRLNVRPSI
Description: SPR; Biacore T100, 20 °C; His-tagged rCAT2 immobilised on the NTA sensor chip (app. 4,500 RU), peptides injected at the same concentration; unmodified reference surface. Conditions: both partners purified.

Consider `OO` [H2O2, hydrogen peroxide], for which, in the data set with CAT2 transcript, the CAT2 transcript result is “Increases in CAT2 transcript”. In addition, the Plant pathogen resistance result with plant pathogen is listed as “enhances plant pathogen resistance”.

As to `C[n+]1ccc(-c2cc[n+](C)cc2)cc1` [methyl viologen], in data set [1], the “Chlorosis in AtPNP-A-deficient seedlings” value is given as “extensive chlorosis”. In the data set on CAT2 transcript, the CAT2 transcript result is recorded as “Increases in CAT2 transcript”.

On to `CC1=CC(=O)CC(C)(C)[C@@]1(O)/C=C/C(C)=C\C(=O)O` [ABA, abscisic acid, reference compound], for which, in the data set on guard cell, the “Effect of ABA on AtPNP-A-dependent guard cell volume increases” value is given as “no effect”. In addition, the “Effect of ABA on AtPNP-A-dependent cGMP increases” value with cGMP is recorded as “no effect”.

B1: pAtPNP-A, synthetic peptide with the active region of AtPNP-A, as used in SPR, ITC and the catalase activity assay (peptide, UniProt Q9ZV52 33-66, looked up)
peptide: YDPPYTRSACYGTQRETLVVGVKNNLWQNGRACG
modifications: disulfide 10-33 (inferred); not fully specified
notes: AtPNP-A (plant natriuretic peptide A), A. thaliana, active region, amino acids 33-66; peptides were made with or without a C-terminal biotin tag; also called biologically active fragment of AtPNP-A; source: synthetic peptide (GenScript, purity > 95%)
In data set [2], B1 had a Kd of 86 nM. In addition, in data set [3], the binding result is listed as “binds”.

As a reminder, the Kd is the constant that tells how readily two partners part at equilibrium.
